Values joined by “and” are separate entries in the source; they are usually repeats but may differ in a detail not shown here. Equal entries are not always repeated.
Settings: isochoric method

CCOCC [diethyl ether]
Liquid
Settings | mass density
416.1 K | 534.6 kg/m3
425.19 K | 517.3 kg/m3
437.14 K | 485.2 kg/m3
450.6 K | 441.5 kg/m3
450.77 K | 440.8 kg/m3
459.61 K | 394.8 kg/m3
464.79 K | 348.2 kg/m3
466.12 K | 212.6 kg/m3
466.47 K | 310.8 kg/m3
466.66 K | 233.7 kg/m3
466.75 K | 296.7 kg/m3
466.8 K | 288.3 kg/m3
466.81 K | 278.7 kg/m3
466.82 K | 275.7 kg/m3
466.83 K | 255 kg/m3 and 260.7 kg/m3
466.85 K | 261.2 kg/m3

Settings | mass density [kg/m3]
416.3 K, 1625 kPa, Liquid | 534.6
416.83 K, 1747 kPa, Liquid | 534.6
416.93 K, 1693 kPa, Liquid | 534.6
417.26 K, 1783 kPa, Liquid | 534.6
418.11 K, 2014 kPa, Liquid | 534.6
420.91 K, 2770 kPa, Liquid | 534.6
421.09 K, 2823 kPa, Liquid | 534.6
422.05 K, 3084 kPa, Liquid | 534.6
425.27 K, 1926 kPa, Liquid | 517.3
425.69 K, 4074 kPa, Liquid | 534.6
425.75 K, 2146 kPa, Liquid | 517.3
425.83 K, 2193 kPa, Liquid | 517.3
425.96 K, 4149 kPa, Liquid | 534.6
426.06 K, 2271 kPa, Liquid | 517.3
426.78 K, 2602 kPa, Liquid | 517.3
427.43 K, 4552 kPa, Liquid | 534.6
432.78 K, 5984 kPa, Liquid | 534.6
432.99 K, 6050 kPa, Liquid | 534.6
433.93 K, 6306 kPa, Liquid | 534.6
437.48 K, 2381 kPa, Liquid | 485.2
437.61 K, 2392 kPa, Liquid | 485.2
437.68 K, 2382 kPa, Liquid | 485.2
437.79 K, 2430 kPa, Liquid | 485.2
438.72 K, 2616 kPa, Liquid | 485.2
438.85 K, 7649 kPa, Liquid | 534.6
439.14 K, 7729 kPa, Liquid | 534.6
439.97 K, 7955 kPa, Liquid | 534.6
445.62 K, 3997 kPa, Liquid | 485.2
445.85 K, 4046 kPa, Liquid | 485.2
446.57 K, 4191 kPa, Liquid | 485.2
448.81 K, 10345 kPa, Liquid | 534.6
449.04 K, 10408 kPa, Liquid | 534.6
449.96 K, 10662 kPa, Liquid | 534.6
450.97 K, 2954 kPa, Liquid | 441.5
450.98 K, 2969 kPa, Liquid | 440.8
451.08 K, 2998 kPa, Liquid | 440.8
451.17 K, 3017 kPa, Liquid | 440.8
451.49 K, 3039 kPa, Liquid | 441.5
451.69 K, 3088 kPa, Liquid | 441.5
452.31 K, 3185 kPa, Liquid | 440.8
452.82 K, 3254 kPa, Liquid | 441.5
459.55 K, 6842 kPa, Liquid | 485.2
459.83 K, 6900 kPa, Liquid | 485.2
460.03 K, 3345 kPa, Liquid | 394.8
460.23 K, 3396 kPa, Liquid | 394.8
460.36 K, 3392 kPa, Liquid | 394.8
460.5 K, 13585 kPa, Liquid | 534.6
460.64 K, 7064 kPa, Liquid | 485.2
460.64 K, 13628 kPa, Liquid | 534.6
461.45 K, 3512 kPa, Liquid | 394.8
461.55 K, 13877 kPa, Liquid | 534.6
461.58 K, 4562 kPa, Liquid | 441.5
461.85 K, 4602 kPa, Liquid | 441.5
461.98 K, 4645 kPa, Liquid | 440.8
462.66 K, 4726 kPa, Liquid | 441.5
463.06 K, 4812 kPa, Liquid | 440.8
465.09 K, 3597 kPa, Liquid | 348.2
465.58 K, 3635 kPa, Liquid | 348.2
465.68 K, 3649 kPa, Liquid | 348.2
465.84 K, 3662 kPa, Liquid | 348.2
466.13 K, 3555 kPa, Gas | 212.6
466.67 K, 3560 kPa, Gas | 233.7
466.68 K, 3578 kPa, Gas | 212.6
466.76 K, 3609 kPa, Liquid | 296.7
466.85 K, 3565 kPa, Gas | 260.7
466.87 K, 3577 kPa, Liquid | 275.7
466.88 K, 3561 kPa, Liquid | 261.2
466.88 K, 3641 kPa, Liquid | 310.8
466.89 K, 3586 kPa, Gas | 255
467.09 K, 3625 kPa, Liquid | 278.8
467.09 K, 3678 kPa, Liquid | 310.8
467.29 K, 3582 kPa, Liquid | 261.2
467.29 K, 3591 kPa, Gas | 233.7
467.29 K, 3602 kPa, Liquid | 275.7
467.29 K, 3605 kPa, Gas | 255
467.39 K, 3612 kPa, Gas | 255
467.47 K, 3597 kPa, Gas | 233.7
467.49 K, 3648 kPa, Liquid | 296.7
467.5 K, 3591 kPa, Liquid | 261.2
467.57 K, 3699 kPa, Liquid | 310.8
467.62 K, 3606 kPa, Gas | 260.7
467.69 K, 3637 kPa, Liquid | 288.3
467.96 K, 3736 kPa, Liquid | 310.8
468.29 K, 3629 kPa, Gas | 233.7
468.29 K, 3662 kPa, Gas | 255
468.39 K, 3632 kPa, Liquid | 261.2
468.52 K, 3635 kPa, Gas | 212.6
468.69 K, 3669 kPa, Gas | 260.7
468.69 K, 3721 kPa, Liquid | 278.8
468.69 K, 3780 kPa, Liquid | 310.8
468.83 K, 3719 kPa, Liquid | 278.8
468.94 K, 3681 kPa, Liquid | 275.7
469.49 K, 3681 kPa, Gas | 212.6
469.89 K, 3738 kPa, Liquid | 275.7
469.89 K, 3776 kPa, Liquid | 278.8
470.22 K, 4019 kPa, Liquid | 348.2
470.71 K, 16287 kPa, Liquid | 534.6
470.75 K, 3929 kPa, Liquid | 296.7
471.09 K, 16390 kPa, Liquid | 534.6
471.25 K, 9234 kPa, Liquid | 485.2
471.29 K, 4110 kPa, Liquid | 348.2
471.59 K, 9306 kPa, Liquid | 485.2
471.69 K, 16551 kPa, Liquid | 534.6
472.29 K, 9719 kPa, Liquid | 485.2
472.58 K, 4780 kPa, Liquid | 394.8
473.16 K, 3968 kPa, Liquid | 288.3
473.49 K, 4095 kPa, Liquid | 296.7
473.49 K, 4886 kPa, Liquid | 394.8
474.18 K, 4037 kPa, Liquid | 288.3
477.4 K, 7063 kPa, Liquid | 440.8
478.46 K, 7226 kPa, Liquid | 440.8
478.97 K, 10850 kPa, Liquid | 485.2
479.25 K, 10911 kPa, Liquid | 485.2
479.29 K, 4255 kPa, Liquid | 261.2
479.79 K, 4580 kPa, Liquid | 310.8
480.04 K, 11078 kPa, Liquid | 485.2
480.08 K, 4398 kPa, Liquid | 288.3
480.2 K, 11129 kPa, Liquid | 485.2
480.44 K, 4322 kPa, Liquid | 296.7
480.44 K, 11179 kPa, Liquid | 485.2
480.83 K, 4665 kPa, Liquid | 310.8
481.03 K, 4460 kPa, Liquid | 288.3
481.43 K, 11386 kPa, Liquid | 485.2
487.13 K, 6550 kPa, Liquid | 394.8
488.12 K, 6673 kPa, Liquid | 394.8
490.82 K, 9157 kPa, Liquid | 440.8
491.84 K, 9329 kPa, Liquid | 440.8
492.58 K, 13642 kPa, Liquid | 485.2
492.82 K, 13695 kPa, Liquid | 485.2
493.6 K, 13857 kPa, Liquid | 485.2
499.04 K, 6021 kPa, Liquid | 310.8
499.15 K, 8032 kPa, Liquid | 394.8
500.02 K, 6096 kPa, Liquid | 310.8
500.21 K, 8166 kPa, Liquid | 394.8
504.02 K, 15987 kPa, Liquid | 485.2
504.28 K, 16044 kPa, Liquid | 485.2
505.05 K, 16203 kPa, Liquid | 485.2
517.61 K, 10294 kPa, Liquid | 394.8
518.47 K, 10403 kPa, Liquid | 394.8
533.2 K, 12288 kPa, Liquid | 394.8
534.36 K, 12440 kPa, Liquid | 394.8
554.38 K, 14968 kPa, Liquid | 394.8
555.38 K, 15098 kPa, Liquid | 394.8
574.32 K, 17455 kPa, Liquid | 394.8
575.32 K, 17595 kPa, Liquid | 394.8
